{"source": "patent US5071983A", "about": "“Therapeutic nucleosides” (priority 1989, dated 1991)", "key": {"[1]": {"assay": "Urinary and fecal excretion after oral dosing of rats", "type": "in vivo, male Sprague Dawley rats", "details": "rat", "procedure": "(§1) Using an intragastric needle, sexually mature, male Sprague Dawley rats were given single 25 mg/kg oral doses of DDC or equimolar doses of DDC Congeners.\nFor urinary and fecal excretion studies, each compound was administered to two animals, which were housed separately in metabolic cages and urine and feces were separated and collected during the 0-24, 24-48 and 48-72 hour intervals post dose. To prevent bacterial growth, sodium azide was placed in the urine collection vessel so that the final concentration, after 24 hours of urine collection, would be about 0.02%. Feces were weighed, homogenized in 9 volumes (9 ml/g) deionized water and centrifuged (12,000×g, 4° C., 30 min). Prior to high-performance liquid chromatographic (HPLC) analysis for drug and metabolite content, samples of the fecal homogenate supernatants and urines were filtered (0.22 μm filters).\n(§2) A dual-pump HPLC system was used to analyse samples of urine, feces, plasma and brain for DDC and its congeners and their metabolites. The solvent for pump A was 25 mM phosphoric acid, buffered to pH 7.2 with ammonium hydroxide. The solvent for pump B was 60% acetonitrile in solvent A. Samples were injected onto an Adsorbospher phenyl column (4.6×250 mm, 5 micron spherical packing) and eluted at a flow rate of 1 ml/minute using linear increases in solvent B from 0 to 15% over 15 minutes and from 15 to 100% over 21 minutes, with 5 minute purge (100% B) and 15 minute restore (0% B) period between injections. The absorbance of the column effluent was monitored at 273 and 254 nm. Concentrations of compounds were determined by comparing appropriate peak areas to standard curves obtained from analysis of aqueous solutions of authentic standards. Compounds were identified by comparing retention times and ratios of peak areas at 273 and 254 nm to those of authentic standards."}, "HIV [2]": {"test_system": "HIV", "details": "known from EP 0216511; cited from earlier work"}, "[3]": {"assay": "Concomitant plasma and brain levels of DDC and its congeners after oral dosing of rats", "type": "in vivo, male Sprague Dawley rats", "details": "rat; for Amounts of analogues still containing the N4-amide in plasma and brain / Plasma and brain levels of DDC relative to DDC dosing: oral dose equivalent to 25 mg DDC, 0.5 and 2 hours; for Levels of DDC in plasma and brain relative to a dose of DDC, 0.5 hour: 0.5 hour post dose; for Plasma and brain concentrations of DDC relative to a dose of DDC, 2 hours: 2 hours post dose", "procedure": "as §1\nFor concomitant plasma and brain level studies, each compound was administered to two animals. Animals were sacrificed by decapitation, one of each pair at 30 minutes and the other at 2 hours post dose. Blood was collected into heparinized cups and plasma was prepared. Samples of each plasma were ultrafiltered (Amicon Centrifree Micropartition Systems) prior to HPLC analysis. Brains were removed, weighed, homogenized in 2 volumes (2 ml/g) deionized water and centrifuged (12,000×g 4° C., 30 min). The resulting supernatants were filtered (0.22 μm filters) prior to HPLC analysis.\nas §2"}, "HIV [4]": {"test_system": "HIV", "assay": "Antiviral activity against HIV (method of Mitsuya et al.)", "type": "cell-based", "details": "Human immunodeficiency virus 1; for IC50: HIV; for minimal effective concentration: no % protection printed, read-out: Concentration at which found to have activity against HIV", "procedure": "The compounds of Examples 1-6 were tested for activity against HIV generally in accordance with the method described by Mitsuya et al, Proc. Nat. Acad. Sci, USA Vol 82, pp 7096-7100, October 1985 and found to have activity against HIV at the following concentrations: […]"}, "[5]": {"details": "in vivo, po, 25 mg/kg, 1440 min"}}, "note": "Several values for one entry are separate records, joined by “and”; a condition that tells them apart may be missing. Identical values can stand only once. Like-named read-outs stand apart in the source and are kept apart here.", "data": [{"smiles": "Nc1ccn([C@H]2CC[C@@H](CO)O2)c(=O)n1", "note": "[DDC, 2',3'-Dideoxycytidine, reference compound]", "values": [{"measurement": "dose excreted at 24 h", "setting": "[1]; feces, po, 25 mg/kg, rat 1, oral 25 mg/kg, compound detected: DDC, read-out: Percent Dose Excreted as DDC, 0-24 hr Feces", "value": 12, "unit": "%"}, {"measurement": "dose excreted", "setting": "[1]; feces, po, 25 mg/kg, two rats, oral 25 mg/kg, feces, DDC, read-out: Average fecal excretion of parent compound", "value": 28.1, "unit": "%"}, {"measurement": "Average fecal excretion of 2',3'-dideoxyuridine", "setting": "[1]; in vivo, po, 25 mg/kg", "value": "1.9 % of the dose"}, {"measurement": "Compound Detected, 24-72 hr Feces", "setting": "[1]; in vivo, po, 25 mg/kg", "value": "none"}, {"measurement": "Gastrointestinal absorption", "setting": "[1]; in vivo, po, 25 mg/kg", "value": "limited gastrointestinal absorption"}, {"measurement": "Percent Dose Excreted as ddU, 0-24 hr Feces", "setting": "[1]; [5]", "value": 1.1, "unit": "Percent Dose"}, {"measurement": "Percent Dose Excreted as ddU, 0-24 hr Urine (second entry so headed)", "setting": "[1]; [5]", "value": 2.6, "unit": "Percent Dose"}, {"measurement": "Percent Dose Excreted as DDC, 0-24 hr Urine", "setting": "[1]; single oral dose 25 mg/kg DDC or equimolar, individual rats, compound detected: DDC, 25 mg/kg, 1440 min", "value": 31.6, "unit": "Percent Dose"}, {"measurement": "Percent Dose Excreted as DDC, 24-72 hr Urine", "setting": "[1]; single oral dose 25 mg/kg DDC or equimolar, individual rats, compound detected: DDC, 25 mg/kg, 4320 min", "value": "6.23 Percent Dose and 1.5 Percent Dose"}, {"measurement": "dose excreted at 24 h", "setting": "[1]; urine, po, 25 mg/kg, rat 2, oral 25 mg/kg DDC, compound detected: DDC, read-out: Percent Dose Excreted as DDC, 0-24 hr Urine (second entry so headed)", "value": 32.2, "unit": "%"}, {"measurement": "dose excreted at 24 h", "setting": "[1]; urine, po, 25 mg/kg, single oral dose 25 mg/kg DDC or equimolar, individual rats, compound detected: DDC, read-out: Percent Dose Excreted as DDC, 0-24 hr Urine", "value": 46.6, "unit": "%"}, {"measurement": "dose excreted at 72 h", "setting": "[1]; urine, po, 25 mg/kg, two rats, oral 25 mg/kg DDC or equimolar, urine 72 hours, read-out: Average urinary excretion as DDC", "value": 43, "unit": "%"}, {"measurement": "Anti-HIV activity", "setting": "HIV [2]", "value": "potent anti-HIV activity"}, {"measurement": "Absorption and hydrolysis (plasma level data)", "setting": "[3]; oral", "value": "absorption of DDC although incomplete, may be more prolonged"}, {"measurement": "inhibition at 16 µM", "setting": "HIV [4]; 16 μM, read-out: % Protection", "value": 99, "unit": "%"}]}, {"smiles": "CC(C)(C)C(=O)Nc1ccn([C@H]2CC[C@@H](CO)O2)c(=O)n1", "note": "[Example 5, 2',3'-dideoxy-N^4-pivaloylcytidine]", "values": [{"measurement": "Amounts of analogues still containing the N4-amide in plasma and brain", "setting": "[3]", "value": "Much higher amounts"}, {"measurement": "Plasma and brain levels of DDC relative to DDC dosing", "setting": "[3]", "value": "lower than what was observed after dosing with DDC"}, {"measurement": "inhibition at 100 µM", "setting": "HIV [4]; 100 μM, read-out: % Protection", "value": 42, "unit": "%"}]}, {"smiles": "CCC(=O)OC[C@@H]1CC[C@H](n2ccc(N)nc2=O)O1", "note": "[Example 3, 2',3'-Dideoxy-5'-O-propionylcytidine]", "values": [{"measurement": "Levels of DDC in plasma and brain relative to a dose of DDC, 0.5 hour", "setting": "[3]; oral", "value": "higher levels of DDC in the plasma and brain"}, {"measurement": "Plasma and brain concentrations of DDC relative to a dose of DDC, 2 hours", "setting": "[3]; oral", "value": "lower than those observed after a dose of DDC"}, {"measurement": "IC50", "setting": "HIV [4]", "value": 1.6, "unit": "µM"}]}, {"smiles": "CC(C)(C)C(=O)Nc1ccn([C@H]2CC[C@@H](COC(=O)C(C)(C)C)O2)c(=O)n1", "note": "[Example 4, 2',3'-dideoxy-N^4,5'-O-dipivaloylcytidine]", "values": [{"measurement": "Amounts of analogues still containing the N4-amide in plasma and brain", "setting": "[3]", "value": "Much higher amounts"}, {"measurement": "Plasma and brain levels of DDC relative to DDC dosing", "setting": "[3]", "value": "lower than what was observed after dosing with DDC"}, {"measurement": "minimal effective concentration", "setting": "HIV [4]", "value": 25, "unit": "µM"}]}, {"smiles": "CCC(=O)Nc1ccn([C@H]2CC[C@@H](CO)O2)c(=O)n1", "note": "[Example 2, 2',3'-Dideoxy-N^4-propionylcytidine]", "values": [{"measurement": "IC50", "setting": "HIV [4]", "value": 36, "unit": "µM"}]}, {"smiles": "CC(C)(C)C(=O)OC[C@@H]1CC[C@H](n2ccc(N)nc2=O)O1", "note": "[Example 6, 2',3'-Dideoxy-5'-O-pivaloylcytidine]", "values": [{"measurement": "Increase of oral bioavailability of DDC", "setting": "[1]; in vivo, po", "value": 2.5, "unit": "fold"}, {"measurement": "Levels of DDC in plasma and brain relative to a dose of DDC, 0.5 hour", "setting": "[3]; oral", "value": "higher levels of DDC in the plasma and brain"}, {"measurement": "Plasma and brain concentrations of DDC relative to a dose of DDC, 2 hours", "setting": "[3]; oral", "value": "lower than those observed after a dose of DDC"}, {"measurement": "inhibition at 6.4 µM", "setting": "HIV [4]; 6.4 μM, read-out: % Protection", "value": 88, "unit": "%"}]}, {"smiles": "CCC(=O)Nc1ccn([C@H]2CC[C@@H](COC(=O)CC)O2)c(=O)n1", "note": "[Example 1, 2',3'-Dideoxy-N^4, 5'-O-dipropionylcytidine]", "values": [{"measurement": "Amounts of analogues still containing the N4-amide in plasma and brain", "setting": "[3]", "value": "Much higher amounts"}, {"measurement": "Plasma and brain levels of DDC relative to DDC dosing", "setting": "[3]", "value": "lower than what was observed after dosing with DDC"}, {"measurement": "minimal effective concentration", "setting": "HIV [4]", "value": 25, "unit": "µM"}]}]}
